Results from patent US20060127411A1 (priority 2002, published 2006).

Legend:
[1] = system: IgE antibodies from the serum of patients with atopic eczema; type: binding, human
[2] = system: peripheral blood lymphocytes (PBMC); type: cell-based, human
[3] = system: peripheral blood lymphocytes (PBMC); type: cell-based, human; remark: listed apart in the source
[4] = system: IgE antibodies from the serum of patients with atopic eczema; type: binding, human; remark: listed apart in the source

Q: With QELDYLTRH [Peptide P1] as the substance, how does the “IgE binding in the dot blot” value [1] read?
A: The value was “weak but clearly detectable IgE binding”.

Q: What does the source list for QEEDFLTLH [Peptide P2]?
A: Effect on proliferation of lymphocytes [2]: did not bring to light any significant effects; Intracellular IFNγ production [3]: P1 suppresses the production of IFNγ, a cytokine which mediates a number of immunological functions, more strongly than P2; Intracellular IL-4 production [3]: is stimulated as a function of the dosage; Ratio between IFNγ and IL-4 (IFNγ+ Th1 cells to IL-4+ Th2 cells) [3]: modified by the peptides as a function of the dosage in favour of the IL-4 producing Th2 lymphocytes; IgE binding in the dot blot [1]: weak but clearly detectable IgE binding

Q: “V Q T N K K K V T A Q E L D Y L T R H (VQTNKKKVTAQELDYLTRH) [Peptide (c)]” was tested. Which “IgE binding in the immunoblot” value [4] did it give?
A: The value was “the only one to exhibit an IgE binding”.

Q: How did the “IgE binding in the immunoblot” value [4] turn out when “S. aureus enterotoxin B [SEB, reference compound]” was run?
A: The value was “possible to detect specific IgE antibodies against SEB”.
